{"source": "ChEMBL document CHEMBL1146414", "about": "“New Agelasine Compound from the Marine Sponge Agelas mauritiana as an Antifouling Substance against Macroalgae” (J Nat Prod, 1997)", "key": {"Ulva [1]": {"system": "Ulva", "test": "Toxicity against Ulva conglobata spores at 50 ppm", "format": "organism-based", "details": "in vivo"}, "[2]": {"system": "Anagnostidinema amphibium", "test": "Antimicroalgal activity against Oscillatoria amphibia at 1.0 to 2.5 ppm", "format": "functional, organism-based"}, "Brachiomonas submarina": {"system": "Brachiomonas submarina", "test": "Antimicroalgal activity against Brachiomonas submarina at 1.0 to 2.5 ppm", "format": "functional, organism-based"}, "Escherichia coli": {"system": "Escherichia coli", "test": "Antibacterial activity against Escherichia coli", "format": "functional, organism-based"}, "Staphylococcus aureus": {"system": "Staphylococcus aureus", "test": "Antibacterial activity against Staphylococcus aureus", "format": "functional, organism-based"}, "Ulva [3]": {"system": "Ulva", "test": "Antifouling activity against Ulva conglobata spores assessed as germination and attachment rate at 2.5 to 10.0 ppm", "format": "functional, organism-based"}, "Salinivibrio costicola": {"system": "Salinivibrio costicola", "test": "Antibacterial activity against sVibrio costicola", "format": "functional, organism-based"}, "Skeletonema costatum": {"system": "Skeletonema costatum", "test": "Antimicroalgal activity against Skeletonema costatum at 1.0 to 2.5 ppm", "format": "functional, organism-based"}, "Bacillus subtilis": {"system": "Bacillus subtilis", "test": "Antibacterial activity against Bacillus subtilis", "format": "functional, organism-based"}, "Prorocentrum micans": {"system": "Prorocentrum micans", "test": "Antimicroalgal activity against Prorocentrum micans at 1.0 to 2.5 ppm", "format": "functional, organism-based"}}, "note": "Active and inactive are the calls of the source. The calls are words filed in the database; no cut-off is given here.", "data": [{"compound": "C/C(=C\\C[n+]1cn(C)c2ncnc(N)c21)CC[C@@]1(C)C2=CCCC(C)(C)[C@@H]2CC[C@@H]1C.[Cl-]", "values": [{"measurement": "Activity", "setting": "Ulva [1]", "value": "Toxic"}, {"measurement": "Activity", "setting": "[2]", "value": "Active"}, {"measurement": "Activity", "setting": "Brachiomonas submarina", "value": "Active"}, {"measurement": "Activity", "setting": "Escherichia coli", "value": "inactive"}, {"measurement": "Activity", "setting": "Staphylococcus aureus", "value": "inactive"}, {"measurement": "Activity", "setting": "Ulva [3]", "value": "Active"}, {"measurement": "Activity", "setting": "Salinivibrio costicola", "value": "inactive"}, {"measurement": "Activity", "setting": "Skeletonema costatum", "value": "Active"}, {"measurement": "Activity", "setting": "Bacillus subtilis", "value": "inactive"}, {"measurement": "Activity", "setting": "Prorocentrum micans", "value": "Active"}]}]}
